Assay results from patent publication US20170088589A1, “STATIN RESISTANCE AND EXPORT” (DANMARKS TEKNISKE UNIVERSITET, priority 2014, published 2017).

Legend:
[1] = tested on: Saccharomyces cerevisiae WT and ARX3 strain harbouring the putative efflux pump MlcE; assay: serial dilution plating of WT and ARX3 on YPD agar plates containing different cytotoxic compounds (FIG. 3); format: cell-based; conditions: compound in YPD agar, tenfold dilution series, 30° C., 2 days; compactin, lovastatin, simvastatin in active form
Protocol: Investigation of the potential of MlcE to confer the resistance to statins in yeast. Tenfold dilution series of Saccharomyces cerevisiae WT and ARX3 strain harbouring the putative efflux pump MlcE, starting with an OD600 of 0.02 were prepared from overnight cultures.
Moreover, to determine if the putative efflux pump MlcE has the ability to export statins across the plasma membrane the inventors of the present application also tested whether MlcE confers resistance to statins in yeast. […] The resulting yeast strain ARX3 was tested for susceptibility to compactin by serial dilution plating of both wild type (WT) and ARX3 strains on YPD agar plates supplemented with the active form of compactin (FIG. 3).

[2] = tested on: Saccharomyces cerevisiae strains (wt, ARX3, AR29 pdr5Δ, pdr5Δ); assay: agar-plate dilution assay (spot assay) with lovastatin, PDR5 complementation (FIG. 4); conditions: lowest tested concentration (0.74 mM) of activated lovastatin, 30° C., 3 days
Protocol: The constructed strains response to different lovastatin levels present in the growth medium were tested using a agar-plate dilution assay (also known as a spot assay). Overnight cultures of the four Saccharomyces cerevisiae strains (wt, ARX3, AR29 pdr5Δ, pdr5Δ,) were diluted to OD600 of 0.2 and a fivefold dilution series for each strain was made. […] The growth of the individual strain as a function of time was recorded by photography.

Compound | resistance of MlcE-expressing strain ARX3 compared to the wild type strain [1] | growth of pdr5Δ strain [2]
CC(C)c1c(C(=O)Nc2ccccc2)c(-c2ccccc2)c(-c2ccc(F)cc2)n1CC[C@@H](O)C[C@@H](O)CC(=O)O [atorvastatin] | does not show an increased resistance | –
CC[C@H](C)C(=O)O[C@H]1CCC=C2C=C[C@H](C)[C@H](CC[C@@H]3C[C@@H](O)CC(=O)O3)[C@H]21 [compactin] | increased resistance | –
CC[C@H](C)C(=O)O[C@H]1C[C@@H](C)C=C2C=C[C@H](C)[C@H](CC[C@@H]3C[C@@H](O)CC(=O)O3)[C@H]21 [lovastatin] | increased resistance | lack of growth
COc1c(C)c2c(c(O)c1C/C=C(\C)CCC(=O)O)C(=O)OC2 [mycophenolic acid] | does not show an increased resistance | –
COc1cc(C=O)ccc1O [vanillin] | does not show an increased resistance | –
